Biological target: T1, HDAC6 enzyme (Homo sapiens, UniProt Q9UBN7)
T1 construct: HDAC6 enzyme prepared by transducing full length HDAC6 gene into Sf-9 insect cells; GST; purchased SignalChem; host or cells: Sf-9 insect cells
T1 sequence (Q9UBN7 1-1215): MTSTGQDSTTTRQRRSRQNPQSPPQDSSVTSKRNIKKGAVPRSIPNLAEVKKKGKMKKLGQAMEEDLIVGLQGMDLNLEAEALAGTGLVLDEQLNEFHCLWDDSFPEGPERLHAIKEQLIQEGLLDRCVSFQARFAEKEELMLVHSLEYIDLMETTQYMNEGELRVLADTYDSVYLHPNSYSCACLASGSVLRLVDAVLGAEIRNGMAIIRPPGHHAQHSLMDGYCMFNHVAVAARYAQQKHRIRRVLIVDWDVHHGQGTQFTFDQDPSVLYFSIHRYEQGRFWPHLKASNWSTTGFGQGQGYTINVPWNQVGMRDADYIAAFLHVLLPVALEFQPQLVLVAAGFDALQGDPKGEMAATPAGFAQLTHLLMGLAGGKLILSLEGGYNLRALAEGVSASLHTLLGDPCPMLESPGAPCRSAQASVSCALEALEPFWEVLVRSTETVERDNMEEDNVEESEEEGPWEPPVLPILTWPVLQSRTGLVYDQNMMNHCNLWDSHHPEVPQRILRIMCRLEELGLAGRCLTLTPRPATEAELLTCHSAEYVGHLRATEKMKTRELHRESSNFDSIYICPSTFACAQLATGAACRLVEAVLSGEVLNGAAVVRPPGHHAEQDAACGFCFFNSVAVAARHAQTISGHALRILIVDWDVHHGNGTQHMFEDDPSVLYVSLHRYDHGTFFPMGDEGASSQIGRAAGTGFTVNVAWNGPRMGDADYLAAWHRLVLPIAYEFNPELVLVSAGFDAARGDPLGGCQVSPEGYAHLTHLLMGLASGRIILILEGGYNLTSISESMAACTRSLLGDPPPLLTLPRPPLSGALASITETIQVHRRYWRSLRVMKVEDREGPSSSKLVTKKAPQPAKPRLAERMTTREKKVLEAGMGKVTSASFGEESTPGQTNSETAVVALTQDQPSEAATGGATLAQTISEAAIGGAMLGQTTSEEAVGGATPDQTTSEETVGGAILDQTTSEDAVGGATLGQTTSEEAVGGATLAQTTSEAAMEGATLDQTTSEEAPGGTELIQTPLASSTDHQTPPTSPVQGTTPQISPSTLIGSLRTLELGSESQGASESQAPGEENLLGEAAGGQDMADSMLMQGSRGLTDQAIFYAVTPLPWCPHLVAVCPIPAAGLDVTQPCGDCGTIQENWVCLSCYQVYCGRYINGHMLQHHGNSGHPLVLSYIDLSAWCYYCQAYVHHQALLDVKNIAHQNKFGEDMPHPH
Assay: HDAC6 enzyme inhibitory assay (HDAC-Glo I/II Assay kit)
Type: biochemical
Conditions: wells without enzyme = 100% inhibition; for inhibition at 10 µM: read-out: HDAC6 inhibitory rate (%) (10 μM)
Method: Experimental Example 1 HDAC6 Enzyme Inhibitory Assay
HDAC6 enzyme prepared by transducing full length HDAC6 gene into Sf-9 insect cells and purifying by GST affinity column were purchased from SignalChem. Using this enzyme, HDAC6 enzyme inhibitory activity of the compound of the present invention were evaluated. Enzymes were used after preserved at −70° C. HDAC6 enzyme inhibitory activity of the compound of the present invention was measured using HDAC-Glo™ I/II Assay kit (Promega) according to the following experimental method. The test compound diluted with assay buffer (24 mM Tris-HCl (pH 7.5), 1 mM MgCl2, 0.35 mM KCl, 135 mM NaCl, 0.6 mM Glutathione, 0.01% Tween-20) was added to a 384-well plate by each 2 μL. Then, HDAC6 enzyme solution diluted with assay buffer was added thereto by each 4 μL, and the plate was incubated at room temperature for 60 min. After incubated, HDAC substrate-Developer solution prepared according to Promega protocol attached to the assay kit was added to the 384-well plate by each 2 μL, and the enzyme reaction was started. After reacting at room temperature for 20 min, luminescence level was measured using plate reader Envision (PerkinElmer). The inhibitory activity of each compound of Example was calculated as a relative activity value when luminescence level in wells without enzyme is considered as 100% inhibition.

inhibition at 10 µM [%] | SMILES | also measured
– | O=C1c2cc(-c3nnc(C(F)F)o3)ccc2CN1[C@H](c1ccccc1)[C@@H](O)c1ccccn1 (single isomer, unassigned) [Example 48, 6-[5-(difluoromethyl)-1,3,4-oxadiazol-2-yl]-2-[(1R*,2R*)-2-hydroxy-1-phenyl-2-(pyridin-2-yl)ethyl]-2,3-dihydro-1H-isoindol-1-one] | HDAC6 inhibitory rate (%) (10 μM) (10 µM): 100%
– | O=C1c2cc(-c3nnc(C(F)F)o3)ccc2CN1[C@H](c1ccc(F)cc1F)[C@@H](O)c1ccc(F)cc1 (single isomer, unassigned) [Example 33, 6-[5-(difluoromethyl)-1,3,4-oxadiazol-2-yl]-2-[(1R*,2S*)-1-(2,4-difluorophenyl)-2-(4-fluorophenyl)-2-hydroxyethyl]-2,3-dihydro-1H-isoindol-1-one] | HDAC6 inhibitory rate (%) (10 μM) (10 µM): 100%
100 | O=C1c2cc(-c3nnc(C(F)F)o3)ccc2CN1[C@H](C1CCOCC1)[C@@H](O)c1cccc(F)c1 [Example 64, 6-[5-(difluoromethyl)-1,3,4-oxadiazol-2-yl]-2-[(1R,2S)-2-(3-fluorophenyl)-2-hydroxy-1-(oxan-4-yl)ethyl]-2,3-dihydro-1H-isoindol-1-one] | –
100 | O=C1c2cc(-c3nnc(C(F)F)o3)ccc2CN1[C@H](C1CC1)[C@@H](O)c1ncccn1 (single isomer, unassigned) [Example 73, 2-[(1R*,2R*)-1-cyclopropyl-2-hydroxy-2-(pyrimidin-2-yl)ethyl]-6-[5-(difluoromethyl)-1,3,4-oxadiazol-2-yl]-2,3-dihydro-1H-isoindol-1-one] | –
99 | O=C1c2cc(-c3nnc(C(F)F)o3)ccc2CN1[C@H](C1CC1)[C@@H](O)c1cccc(F)n1 (single isomer, unassigned) [Example 79, 2-[(1R*,2R*)-1-cyclopropyl-2-(6-fluoropyridin-2-yl)-2-hydroxyethyl]-6-[5-(difluoromethyl)-1,3,4-oxadiazol-2-yl]-2,3-dihydro-1H-isoindol-1-one] | –
101 | O=C1c2cc(-c3nnc(C(F)F)o3)ccc2CN1[C@H](C1CCOCC1)[C@@H](O)c1cccc(Cl)c1 (single isomer, unassigned) [Example 70, 2-[(1R*,2S*)-2-(3-chlorophenyl)-2-hydroxy-1-(oxan-4-yl)ethyl]-6-[5-(difluoromethyl)-1,3,4-oxadiazol-2-yl]-2,3-dihydro-1H-isoindol-1-one] | –
99 | O=C1c2cc(-c3nnc(C(F)F)o3)ccc2CN1[C@H](c1ccc(F)cc1)[C@H](O)c1cccc(F)c1 (racemic) [Example 147, 6-[5-(difluoromethyl)-1,3,4-oxadiazol-2-yl]-2-[(1RS,2RS)-2-(3-fluorophenyl)-1-(4-fluorophenyl)-2-hydroxyethyl]-2,3-dihydro-1H-isoindol-1-one] | –
– | O=C1c2cc(-c3nnc(C(F)F)o3)ccc2CN1[C@H](c1ccccn1)[C@@H](O)c1cccc(F)c1 (single isomer, unassigned) [Example 62, 6-[5-(difluoromethyl)-1,3,4-oxadiazol-2-yl]-2-[(1R*,2S*)-2-(3-fluorophenyl)-2-hydroxy-1-(pyridin-2-yl)ethyl]-2,3-dihydro-1H-isoindol-1-one] | HDAC6 inhibitory rate (%) (10 μM): 100%
– | O=C1c2cc(-c3nnc(C(F)F)o3)ccc2CN1[C@H](c1ccc(F)cn1)[C@@H](O)c1ccccn1 (single isomer, unassigned) [Example 60] | HDAC6 inhibitory rate (%) (10 μM) (10 µM): 99%
– | O=C1c2cc(-c3nnc(C(F)F)o3)ccc2CN1[C@H](c1ccccn1)[C@@H](O)c1ccc(F)cc1 (single isomer, unassigned) [Example 37, 6-[5-(difluoromethyl)-1,3,4-oxadiazol-2-yl]-2-[(1R*,2S*)-2-(4-fluorophenyl)-2-hydroxy-1-(pyridin-2-yl)ethyl]-2,3-dihydro-1H-isoindol-1-one] | HDAC6 inhibitory rate (%) (10 μM) (10 µM): 100%
99 | O=C1c2cc(-c3nnc(C(F)F)o3)ccc2CN1[C@H](c1ccccn1)[C@@H](O)c1cccc(Cl)n1 (single isomer, unassigned) [Example 114, 2-[(1R*,2R*)-2-(6-chloropyridin-2-yl)-2-hydroxy-1-(pyridin-2-yl)ethyl]-6-[5-(difluoromethyl)-1,3,4-oxadiazol-2-yl]-2,3-dihydro-1H-isoindol-1-one] | –
– | O=C1c2cc(-c3nnc(C(F)F)o3)ccc2CN1[C@H](c1ncccn1)[C@@H](O)c1ccc(F)c(F)c1 (single isomer, unassigned) [Example 95, 6-[5-(difluoromethyl)-1,3,4-oxadiazol-2-yl]-2-[(1R*,2S*)-2-(3,4-difluorophenyl)-2-hydroxy-1-(pyrimidin-2-yl)ethyl]-2,3-dihydro-1H-isoindol-1-one] | HDAC6 inhibitory rate (%) (10 μM) (10 µM): 99%
100 | O=C1c2cc(-c3nnc(C(F)F)o3)ccc2CN1[C@@H](c1ccccn1)[C@H](O)c1ccc(F)cn1 [Example 4, 6-[5-(difluoromethyl)-1,3,4-oxadiazol-2-yl]-2-[(1S,2S)-2-(5-fluoropyridin-2-yl)-2-hydroxy-1-(pyridin-2-yl)ethyl]-2,3-dihydro-1H-isoindol-1-one] | –
99 | O=C1c2cc(-c3nnc(C(F)F)o3)ccc2CN1[C@H](c1cccnn1)[C@@H](O)c1ccc(Cl)cc1 (single isomer, unassigned) [Example 111, 2-[(1R*,2S*)-2-(4-chlorophenyl)-2-hydroxy-1-(pyridazin-3-yl)ethyl]-6-[5-(difluoromethyl)-1,3,4-oxadiazol-2-yl]-2,3-dihydro-1H-isoindol-1-one] | –
101 | O=C1c2cc(-c3nnc(C(F)F)o3)ccc2CN1[C@H](c1ccccc1F)[C@@H](O)c1ccccc1 (racemic) [Example 27, 6-[5-(difluoromethyl)-1,3,4-oxadiazol-2-yl]-2-[(1RS,2SR)-1-(2-fluorophenyl)-2-hydroxy-2-phenylethyl]-2,3-dihydro-1H-isoindol-1-one] | –
99 | O=C1c2cc(-c3nnc(C(F)F)o3)ccc2CN1[C@H](c1ncccn1)[C@H](O)c1cccc(F)c1 (racemic) [Example 136, 6-[5-(difluoromethyl)-1,3,4-oxadiazol-2-yl]-2-[(1RS,2RS)-2-(3-fluorophenyl)-2-hydroxy-1-(pyrimidin-2-yl)ethyl]-2,3-dihydro-1H-isoindol-1-one] | –
101 | O=C1c2cc(-c3nnc(C(F)F)o3)ccc2CN1[C@H](c1cccnn1)[C@@H](O)c1cccc(Cl)c1 (relative stereo) [Example 121, 2-[(1R*,2S)-2-(3-chlorophenyl)-2-hydroxy-1-(pyridazin-3-yl)ethyl]-6-[5-(difluoromethyl)-1,3,4-oxadiazol-2-yl]-2,3-dihydro-1H-isoindol-1-one] | –
100 | O=C1c2cc(-c3nnc(C(F)F)o3)ccc2CN1[C@H](C1CC1)[C@@H](O)c1ccc(F)cc1 [Example 9, 2-[(1R,2S)-1-cyclopropyl-2-(4-fluorophenyl)-2-hydroxyethyl]-6-[5-(difluoromethyl)-1,3,4-oxadiazol-2-yl]-2,3-dihydro-1H-isoindol-1-one] | –
100 | O=C1c2cc(-c3nnc(C(F)F)o3)ccc2CN1[C@H](C1CC1)[C@@H](O)c1cccc(Cl)n1 (single isomer, unassigned) [Example 129, 2-[(1R*,2R*)-2-(6-chloropyridin-2-yl)-1-cyclopropyl-2-hydroxyethyl]-6-[5-(difluoromethyl)-1,3,4-oxadiazol-2-yl]-2,3-dihydro-1H-isoindol-1-one] | –
